Experimental data as given in US12281363B2, “Methods for detecting antiviral-drug resistant virus” (Secretary of State for Health and Social Care, priority 2018, dated 2025).
Read-outs that look alike come from different tables or passages of the source.

System: HSV-1
Test: Plaque reduction assay, HSV-1 clinical isolates on Vero cells
Assay type: cell-based
Settings: Human alphaherpesvirus 1, Vero
Outline: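 Susceptibility of HSV-1 isolates was read as percent plaque reduction versus no-drug control, counted on fixed, crystal-violet-stained sub-confluent Vero cells infected at 75 PFU/well beneath CMC. Intermediate resistance lies between cut-offs ACV <3/>40 μM, PCV <10/>40 μM, CDV <24/>30 μM, FOS <250/>400 μM.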

With `Nc1nc2c(ncn2COCCO)c(=O)[nH]1` [Aciclovir, acyclovir] the IC50 (72 h, isolate HPG053, HSV-1 pol L802R + A834S (2405T>G, 2500G>T), also TK R176W, read-out: Drug susceptibility (IC50 value)) was > 40 µM, the IC50 (isolate HPG002, HSV-1 pol E992K (2974G>A), also TK insert (G) nt 430-436, pol A1169T, read-out: Drug susceptibility (IC50 value)) was 21.6 µM and the IC50 (isolate HPG003, HSV-1 TK Y172S (515A>C), read-out: Drug susceptibility (IC50 value)) was 28 µM. The IC50 (isolate HPG005, HSV-1 TK A37V (110C>T), read-out: Drug susceptibility (IC50 value)) was 1.46 µM, the IC50 (isolate HPG008, HSV-1 TK V204G (611T>G), read-out: Drug susceptibility (IC50 value)) was 22.5 µM and the IC50 (isolate HPG009, HSV-1 pol E992K (2974G>A), also pol A1169T, read-out: Drug susceptibility (IC50 value)) was 1.3 µM. It also gave an IC50 (isolate HPG010, HSV-1 TK Q125* (373C>T), read-out: Drug susceptibility (IC50 value)) of 9.21 µM, an IC50 (isolate HPG011, HSV-1 TK Q125* (373C>T), read-out: Drug susceptibility (IC50 value)) of 13.8 µM and an IC50 (isolate HPG013, HSV-1 TK M121I (363G>A), read-out: Drug susceptibility (IC50 value)) of 18.8 µM. The IC50 (isolate HPG013, HSV-1 pol D83A (248A>C), also TK M121I, pol A1169T, read-out: Drug susceptibility (IC50 value)) was 18.8 µM, the IC50 (isolate HPG014, HSV-1 pol A1115T (3343G>A), read-out: Drug susceptibility (IC50 value)) was 1.41 µM and the IC50 (isolate HPG014, HSV-1 pol R993C (2977C>T), read-out: Drug susceptibility (IC50 value)) was 1.41 µM. The IC50 (isolate HPG014, HSV-1 pol T54A (160A>G), read-out: Drug susceptibility (IC50 value)) was 1.41 µM, the IC50 (isolate HPG015, HSV-1 pol 966stop or F965_I966insF (2892_2893insT to 2895_2896insT), read-out: Drug susceptibility (IC50 value)) was 2.4 µM and the IC50 (isolate HPG018, HSV-1 TK frameshift (881delC to 885delC), read-out: Drug susceptibility (IC50 value)) was 24.7 µM. The IC50 (isolate HPG018, HSV-1 pol P1199T (3595C>A), also TK deletion (C) nt 881-885, pol A1169T, read-out: Drug susceptibility (IC50 value)) was 24.7 µM, the IC50 (isolate HPG019, HSV-1 pol K750T (2249A>C), also TK deletion (G) nt 430-436, pol A1169T, read-out: Drug susceptibility (IC50 value)) was > 40 µM and the IC50 (isolate HPG020, HSV-1 pol S911N (2732G>A), also pol A1169T, read-out: Drug susceptibility (IC50 value)) was 0.56 µM. For the same compound, the IC50 (isolate HPG021, HSV-1 pol R681Q (2042G>A), also TK deletion (G) nt 430-436, read-out: Drug susceptibility (IC50 value)) was > 40 µM, the IC50 (isolate HPG021, HSV-1 pol T839A (2515A>G), also TK deletion (G) nt 430-436, read-out: Drug susceptibility (IC50 value)) was > 40 µM and the IC50 (isolate HPG025, HSV-1 pol E850Q (2548G>C), also TK R216C, read-out: Drug susceptibility (IC50 value)) was 22.2 µM. For the same compound, the IC50 (isolate HPG026, HSV-1 pol E850Q (2548G>C), also TK R216C, pol A1169T, read-out: Drug susceptibility (IC50 value)) was 18.1 µM, the IC50 (isolate HPG027, HSV-1 TK V204G (611T>G), also pol S914L, A1169AT, read-out: Drug susceptibility (IC50 value)) was > 40 µM and the IC50 (isolate HPG027, HSV-1 pol S914L (2741C>T), also TK V204G, pol A1169T, read-out: Drug susceptibility (IC50 value)) was > 40 µM. For the same compound, the IC50 (isolate HPG029, HSV-1 TK Y172S (515A>C), read-out: Drug susceptibility (IC50 value)) was > 40 µM, the IC50 (isolate HPG031, HSV-1 pol E1120A (3359A>C), also a TK resistance mutation (footnote e), read-out: Drug susceptibility (IC50 value)) was 27.7 µM and the IC50 (isolate HPG031, HSV-1 pol G139R (415G>C or 415G>A), also a TK resistance mutation (footnote e), read-out: Drug susceptibility (IC50 value)) was 27.7 µM. The IC50 (isolate HPG032, HSV-1 TK 183* (437_438insA), read-out: Drug susceptibility (IC50 value)) was 27.4 µM, the IC50 (isolate HPG033, HSV-1 TK I358L (1072A>C), also TK T287M, read-out: Drug susceptibility (IC50 value)) was 38.9 µM and the IC50 (isolate HPG033, HSV-1 pol N1046T (3137A>C), also TK T287M, pol A1169T, read-out: Drug susceptibility (IC50 value)) was 38.9 µM. For the same compound, the IC50 (isolate HPG035, HSV-1 pol S239L (716C>T), also pol S724N, read-out: Drug susceptibility (IC50 value)) was 5.43 µM, the IC50 (isolate HPG037, HSV-1 TK R256W (766C>T), read-out: Drug susceptibility (IC50 value)) was 24.8 µM and the IC50 (isolate HPG037, HSV-1 TK Y239H (715T>C), read-out: Drug susceptibility (IC50 value)) was 24.8 µM. For the same compound, the IC50 (isolate HPG039, HSV-1 TK 85* or H58fs (169delC, 170delC, 171delC, or 172delC), read-out: Drug susceptibility (IC50 value)) was 25.6 µM, the IC50 (isolate HPG040, HSV-1 pol S911N (2732G>A), also TK deletion (C) nt 896-900, pol A1169T, read-out: Drug susceptibility (IC50 value)) was > 40 µM and the IC50 (isolate HPG041, HSV-1 pol S911N (2732G>A), also pol A1169T, read-out: Drug susceptibility (IC50 value)) was 0.5 µM. The IC50 (isolate HPG042, HSV-1 pol A972V (2915C>T), also TK deletion (C) nt 881-885, pol A1169T, read-out: Drug susceptibility (IC50 value)) was > 40 µM, the IC50 (isolate HPG042, HSV-1 pol G22R (64G>A), also TK deletion (C) nt 881-885, pol A1169T, read-out: Drug susceptibility (IC50 value)) was > 40 µM and the IC50 (isolate HPG043, HSV-1 TK 183* (437_438insA), read-out: Drug susceptibility (IC50 value)) was 28.5 µM. For the same compound, the IC50 (isolate HPG045, HSV-1 TK L49R (146T>G), read-out: Drug susceptibility (IC50 value)) was 31.5 µM, the IC50 (isolate HPG045, HSV-1 pol L419I (1255C>A), also TK L49R, pol A1169T, read-out: Drug susceptibility (IC50 value)) was 31.5 µM and the IC50 (isolate HPG046, HSV-1 TK I166N (497T>A), read-out: Drug susceptibility (IC50 value)) was 11.4 µM. For the same compound, the IC50 (isolate HPG050, HSV-1 TK Q34* (100C>T), read-out: Drug susceptibility (IC50 value)) was > 40 µM, the IC50 (isolate HPG051, HSV-1 pol D83A (248A>C), also TK R176stop, read-out: Drug susceptibility (IC50 value)) was 29.2 µM and the IC50 (isolate HPG052, HSV-1 TK Q34* (100C>T), read-out: Drug susceptibility (IC50 value)) was 8.45 µM. For the same compound, the IC50 (isolate HPG053, HSV-1 pol S911N (2732G>A), also TK R176W, pol A1169T, read-out: Drug susceptibility (IC50 value)) was > 40 µM, the IC50 (isolate HPG054, HSV-1 pol E992K (2974G>A), also TK insert (G) nt 430-436, pol A1169T, read-out: Drug susceptibility (IC50 value)) was 8.25 µM and the IC50 (read-out: Drug susceptibility (IC50 value), isolate HPG005, HSV-1 TK A192T (574G>A)) was 1.46 µM. The IC50 (read-out: Drug susceptibility (IC50 value), isolate HPG006, HSV-1 pol G121S (361G>A), also a TK resistance mutation (footnote a)) was > 40 µM, the IC50 (read-out: Drug susceptibility (IC50 value), isolate HPG012, HSV-1 pol G985E (2954G>A), also TK A93V) was > 40 µM and the IC50 (read-out: Drug susceptibility (IC50 value), isolate HPG016, HSV-1 pol A1169T (3505G>A)) was 3.55 µM. The IC50 (read-out: Drug susceptibility (IC50 value), isolate HPG037, HSV-1 TK L69M (205>A), also TK Y239H) was 24.8 µM, the IC50 (read-out: Drug susceptibility (IC50 value), isolate HPG042, HSV-1 TK frameshift (881delC to 885delC)) was > 40 µM and the IC50 (read-out: Drug susceptibility (IC50 value), isolate HPG047, HSV-1 pol E680 (2039A>C), also TK deletion (C) nt 548-553, pol A1169T) was 22.4 µM.
